{"source": "patent US20100286260A1", "about": "“MILNACIPRAN FORMULATIONS” (priority 2009, published 2010)", "key": {"[1]": {"assay": "Conversion to cyclic degradation product F1612 in 0.1 M pH 9.0 buffer at 50° C.", "assay_type": "physicochemical", "settings": "50° C. and pH 9.0", "protocol": "Milnacipran hydrochloride was exposed to 0.1 M pH 9.0 buffer (glycine-NaOH) at 50° C. in a closed glass flask for several days."}, "[2]": {"assay_type": "physicochemical", "source_text": "(§1) Milnacipran can be easily processed in solvent state with conventional binder such as Povidone. However, in aqueous state the milnacipran has some unusual properties which present difficulties in drug layering approach. […] In exemplary embodiments, the PEG functions as a co-binder, anti-tacking agent, plasticizer to HPMC and as an eraser to the drug's deliquescent property."}, "Deliquescence": {"assay": "Deliquescence", "assay_type": "physicochemical", "settings": "room temperature", "source_text": "as §1"}, "uptake of dopamine": {"tested_on": "uptake of dopamine", "settings": "cited from earlier work"}}}
{"smiles": "CCN(CC)C(=O)C1(c2ccccc2)CC1CN", "note": "(stereo not shown) [Milnacipran, milnacipran]", "values": [{"measurement": "formation of the cyclic degradation product", "setting": "[1]", "result": "rapid formation"}, {"measurement": "solubility in water", "setting": "[2]", "result": "highly soluble"}, {"measurement": "deliquescent at RH", "setting": "Deliquescence", "result": "75-80 % RH"}, {"measurement": "effect on the uptake of dopamine", "setting": "uptake of dopamine", "result": "does not affect"}]}
